Assay [1] relates to human lung cancer strain NCI-H441. In kind it is cell-based. The procedure, abridged: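 Readout: […] after the ATP-based reagent. Compound: serial dilutions in dimethyl sulfoxide.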
The target of a further assay is HRAS wild-type protein (Homo sapiens, UniProt P01112). The assay can be described thus: Binding to HRAS by surface plasmon resonance (SPR), KD and KD ratio to KRAS. To be noted: ratio of KD value for HRAS wild-type protein to KD value for KRAS (SPR). Put shortly:
(§1)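 GDP-bound biotin-Avi RAS captured at ~100–300 RU, 30°C, pH 7.4 HBS containing 10 µM GDP, 10 mM MgCl2, 1 mM DTT, 0.01% Tween 20 and 4% DMSO. KD by 1:1 fitting.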
A general note: SPR reads the build-up and loss of mass on a sensor chip optically.

Assay [2] addresses GDP-bound NRAS wild-type protein (Homo sapiens, UniProt P01111). Nature of the assay: Binding to NRAS by surface plasmon resonance (SPR), KD and KD ratio to KRAS. To be noted: ratio of KD value for GDP-bound NRAS wild-type protein to KD value for KRAS (SPR). The procedure, abridged:
as §1

pIC50: −log10 of the molar value.

Sequence of HRAS wild-type protein (P01112 whole entry): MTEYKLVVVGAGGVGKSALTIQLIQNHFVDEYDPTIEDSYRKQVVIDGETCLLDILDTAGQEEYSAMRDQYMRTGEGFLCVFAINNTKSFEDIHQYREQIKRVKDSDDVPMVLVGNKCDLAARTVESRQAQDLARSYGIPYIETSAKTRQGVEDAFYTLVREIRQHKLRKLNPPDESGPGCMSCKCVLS
Sequence of GDP-bound NRAS wild-type protein (P01111 whole entry): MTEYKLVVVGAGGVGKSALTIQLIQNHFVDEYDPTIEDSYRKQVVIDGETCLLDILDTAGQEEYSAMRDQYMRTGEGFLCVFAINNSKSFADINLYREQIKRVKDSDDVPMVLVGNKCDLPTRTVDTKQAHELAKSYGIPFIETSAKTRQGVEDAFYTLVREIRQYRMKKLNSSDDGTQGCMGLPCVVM

As for `CCCN(C)C(=O)[C@@H]1CC(=O)N(C)[C@@H](CC(F)F)C(=O)N[C@@H]([C@@H](C)CC)C(=O)N(C)CC(=O)N(C)[C@H]2C/C=C\CCN(C2=O)[C@@H](Cc2ccc(C(F)(F)F)cc2)C(=O)N(C)CC(=O)N[C@@H](CCc2cc(F)c(C(F)(F)F)c(F)c2)C(=O)N2C[C@H](F)C[C@H]2C(=O)NC2(CC(C)(C)C2)C(=O)N(C)[C@@H](C2CCCC2)C(=O)N1C` [PP1687], the pIC50 in assay [1] is 8.57. In addition, on HRAS wild-type protein, the “HRAS /KRAS” value is “A (a compound having 10 or more and less than 20 is denoted as A)”. Moreover, the “NRAS /KRAS” value in assay [2] is “A (a compound having 10 or more and less than 20 is denoted as A)”.

Consider `CC[C@H](C)[C@@H]1NC(=O)[C@H](CC(F)(F)F)N(C)C(=O)C[C@@H](C(=O)N(C)C)N(C)C(=O)[C@H](C2CCCC2)N(C)C(=O)C2(CC(C)(C)C2)NC(=O)[C@@H]2C[C@@H](F)CN2C(=O)[C@H](CCc2cc(F)c(C(F)(F)F)c(F)c2)NC(=O)CN(C)C(=O)[C@H](Cc2ccc(C(F)(F)F)cc2)N2CC/C=C\C[C@@H](C2=O)N(C)C(=O)CN(C)C1=O` [PP1688], for which, in assay [1], the pIC50 was 8.82. Besides, the “HRAS /KRAS” value on HRAS wild-type protein was “A (a compound having 10 or more and less than 20 is denoted as A)”. Besides, the “NRAS /KRAS” value in assay [2] is “A (a compound having 10 or more and less than 20 is denoted as A)”.

In assay [1], `CCC[C@H]1C(=O)N[C@@H]([C@@H](C)CC)C(=O)N(C)CC(=O)N(C)[C@H]2C/C=C\CCN(C2=O)[C@@H](Cc2ccc(C(F)(F)F)cc2)C(=O)N(C)CC(=O)N[C@@H](CCc2cc(F)c(C(F)(F)F)c(F)c2)C(=O)N2C[C@H](F)C[C@H]2C(=O)NC2(CC(C)(C)C2)C(=O)N(C)[C@@H](C2CCCC2)C(=O)N(C)[C@H](C(=O)N(C)C)CC(=O)N1C` [PP1689] gave a pIC50 of 8.85. The “HRAS /KRAS” value at HRAS wild-type protein is “B (a compound having 3 or more and less than 10 is denoted as B)”. Moreover, the “NRAS /KRAS” value in assay [2] was “A (a compound having 10 or more and less than 20 is denoted as A)”.

In turn, `C#CC[C@H]1C(=O)N[C@@H]([C@@H](C)CC)C(=O)N(C)CC(=O)N(C)[C@H]2C/C=C\CCN(C2=O)[C@@H](Cc2ccc(C(F)(F)F)cc2)C(=O)N(C)CC(=O)N[C@@H](CCc2cc(F)c(C(F)(F)F)c(F)c2)C(=O)N2C[C@H](F)C[C@H]2C(=O)NC2(CC(C)(C)C2)C(=O)N(C)[C@@H](C2CCCC2)C(=O)N(C)[C@H](C(=O)N(C)CC)CC(=O)N1C` [PP1691] showed a pIC50 in assay [1] of 8.51. For the same molecule, at HRAS wild-type protein, the “HRAS /KRAS” value was “A (a compound having 10 or more and less than 20 is denoted as A)”. In addition, the “NRAS /KRAS” value in assay [2] is “A (a compound having 10 or more and less than 20 is denoted as A)”.

For `C#CC[C@H]1C(=O)N[C@@H]([C@@H](C)CC)C(=O)N(C)CC(=O)N(C)[C@H]2C/C=C\CCN(C2=O)[C@@H](Cc2ccc(C(F)(F)F)cc2)C(=O)N(C)CC(=O)N[C@@H](CCc2cc(F)c(C(F)(F)F)c(F)c2)C(=O)N2C[C@H](F)C[C@H]2C(=O)NC2(CC(C)(C)C2)C(=O)N(C)[C@@H](C2CCCC2)C(=O)N(C)[C@H](C(=O)N(C)CCC)CC(=O)N1C` [PP1692], the pIC50 in assay [1] is 8.37. Moreover, on HRAS wild-type protein, the “HRAS /KRAS” value was “A (a compound having 10 or more and less than 20 is denoted as A)”. In addition, the “NRAS /KRAS” value in assay [2] was “AA (a compound having 20 or more is denoted as AA)”.

Turning to `CC[C@H](C)[C@@H]1NC(=O)[C@H](CC(C)C)N(C)C(=O)C[C@@H](C(=O)N(C)CC)N(C)C(=O)[C@H](C2CCCC2)N(C)C(=O)C2(CC(C)(C)C2)NC(=O)[C@@H]2C[C@@H](F)CN2C(=O)[C@H](CCc2cc(F)c(C(F)(F)F)c(F)c2)NC(=O)CN(C)C(=O)[C@H](Cc2ccc(C(F)(F)F)cc2)N2CC/C=C\C[C@@H](C2=O)N(C)C(=O)CN(C)C1=O` [PP1694], in assay [1], the negative-log IC50 (pIC50) is 8.39. For the same molecule, the “HRAS /KRAS” value on HRAS wild-type protein is “A (a compound having 10 or more and less than 20 is denoted as A)”. Also, the “NRAS /KRAS” value in assay [2] was “A (a compound having 10 or more and less than 20 is denoted as A)”.

For the molecule `CCCN(C)C(=O)[C@@H]1CC(=O)N(C)[C@@H](COC)C(=O)N[C@@H]([C@@H](C)CC)C(=O)N(C)CC(=O)N(C)[C@H]2C/C=C\CCN(C2=O)[C@@H](Cc2ccc(C(F)(F)F)cc2)C(=O)N(C)CC(=O)N[C@@H](CCc2cc(F)c(C(F)(F)F)c(F)c2)C(=O)N2C[C@H](F)C[C@H]2C(=O)NC2(CC(C)(C)C2)C(=O)N(C)[C@@H](C2CCCC2)C(=O)N1C` [PP1696], the pIC50 in assay [1] was 8.54. In addition, the “HRAS /KRAS” value on HRAS wild-type protein is “A (a compound having 10 or more and less than 20 is denoted as A)”. Besides, the “NRAS /KRAS” value in assay [2] is “AA (a compound having 20 or more is denoted as AA)”.

On to `CCCOC[C@H]1C(=O)N[C@@H]([C@@H](C)CC)C(=O)N(C)CC(=O)N(C)[C@H]2C/C=C\CCN(C2=O)[C@@H](Cc2ccc(C(F)(F)F)cc2)C(=O)N(C)CC(=O)N[C@@H](CCc2cc(F)c(C(F)(F)F)c(F)c2)C(=O)N2C[C@H](F)C[C@H]2C(=O)NC2(CC(C)(C)C2)C(=O)N(C)[C@@H](C2CCCC2)C(=O)N(C)[C@H](C(=O)N(C)CC)CC(=O)N1C` [PP1697], for which the pIC50 in assay [1] is 8.44. For the same molecule, on HRAS wild-type protein, the “HRAS /KRAS” value is “A (a compound having 10 or more and less than 20 is denoted as A)”. For the same molecule, in assay [2], the “NRAS /KRAS” value was “A (a compound having 10 or more and less than 20 is denoted as A)”.

`CCCOC[C@H]1C(=O)N[C@@H]([C@@H](C)CC)C(=O)N(C)CC(=O)N(C)[C@H]2C/C=C\CCN(C2=O)[C@@H](Cc2ccc(C(F)(F)F)cc2)C(=O)N(C)CC(=O)N[C@@H](CCc2cc(F)c(C(F)(F)F)c(F)c2)C(=O)N2C[C@H](F)C[C@H]2C(=O)NC2(CC(C)(C)C2)C(=O)N(C)[C@@H](C2CCCC2)C(=O)N(C)[C@H](C(=O)N(C)CCC)CC(=O)N1C` [PP1698] gave a negative logarithm of the IC50 (pIC50) in assay [1] of 8.29. For the same molecule, the “HRAS /KRAS” value at HRAS wild-type protein is “A (a compound having 10 or more and less than 20 is denoted as A)”. Besides, in assay [2], the “NRAS /KRAS” value was “A (a compound having 10 or more and less than 20 is denoted as A)”.

Molecule `CCCN(C)C(=O)[C@@H]1CC(=O)N(C)[C@@H](CC)C(=O)N[C@@H]([C@@H](C)CC)C(=O)N(C)CC(=O)N(C)[C@H]2C/C=C\CCN(C2=O)[C@@H](Cc2ccc(C(F)(F)F)cc2)C(=O)N(C)CC(=O)N[C@@H](CCc2cc(F)c(C(F)(F)F)c(F)c2)C(=O)N2C[C@H](OCC)C[C@H]2C(=O)NC2(CCC2)C(=O)N(C)[C@@H](C2CCCC2)C(=O)N1C` [PP1699] had a negative logarithm of the IC50 (pIC50) in assay [1] of 8.60. Further, the “HRAS /KRAS” value on HRAS wild-type protein was “A (a compound having 10 or more and less than 20 is denoted as A)”. For the same molecule, the “NRAS /KRAS” value in assay [2] was “A (a compound having 10 or more and less than 20 is denoted as A)”.

In assay [1], `CCCN(C)C(=O)[C@@H]1CC(=O)N(C)[C@@H](CC(F)F)C(=O)N[C@@H]([C@@H](C)CC)C(=O)N(C)CC(=O)N(C)[C@H]2C/C=C\CCN(C2=O)[C@@H](Cc2ccc(C(F)(F)F)cc2)C(=O)N(C)CC(=O)N[C@@H](CCc2cc(F)c(C(F)(F)F)c(F)c2)C(=O)N2C[C@H](OCC)C[C@H]2C(=O)NC2(CCC2)C(=O)N(C)[C@@H](C2CCCC2)C(=O)N1C` [PP1700] had a pIC50 of 8.44. Moreover, the “HRAS /KRAS” value at HRAS wild-type protein was “A (a compound having 10 or more and less than 20 is denoted as A)”. The “NRAS /KRAS” value in assay [2] is “A (a compound having 10 or more and less than 20 is denoted as A)”.

In turn, `CCCN(C)C(=O)[C@@H]1CC(=O)N(C)[C@@H](CC(F)(F)F)C(=O)N[C@@H]([C@@H](C)CC)C(=O)N(C)CC(=O)N(C)[C@H]2C/C=C\CCN(C2=O)[C@@H](Cc2ccc(C(F)(F)F)cc2)C(=O)N(C)CC(=O)N[C@@H](CCc2cc(F)c(C(F)(F)F)c(F)c2)C(=O)N2C[C@H](OCC)C[C@H]2C(=O)NC2(CCC2)C(=O)N(C)[C@@H](C2CCCC2)C(=O)N1C` [PP1702] gave a pIC50 in assay [1] of 8.31. The “HRAS /KRAS” value at HRAS wild-type protein was “A (a compound having 10 or more and less than 20 is denoted as A)”. Also, the “NRAS /KRAS” value in assay [2] was “A (a compound having 10 or more and less than 20 is denoted as A)”.

In assay [1], `C#CC[C@H]1C(=O)N[C@@H]([C@@H](C)CC)C(=O)N(C)CC(=O)N(C)[C@H]2C/C=C\CCN(C2=O)[C@@H](Cc2ccc(C(F)(F)F)cc2)C(=O)N(C)CC(=O)N[C@@H](CCc2cc(F)c(C(F)(F)F)c(F)c2)C(=O)N2C[C@H](OCC)C[C@H]2C(=O)NC2(CCC2)C(=O)N(C)[C@@H](C2CCCC2)C(=O)N(C)[C@H](C(=O)N(C)CCC)CC(=O)N1C` [PP1703] showed a pIC50 of 8.14. Also, on HRAS wild-type protein, the “HRAS /KRAS” value is “A (a compound having 10 or more and less than 20 is denoted as A)”. Besides, the “NRAS /KRAS” value in assay [2] is “A (a compound having 10 or more and less than 20 is denoted as A)”.

In assay [1], `CCCC[C@H]1C(=O)N[C@@H]([C@@H](C)CC)C(=O)N(C)CC(=O)N(C)[C@H]2C/C=C\CCN(C2=O)[C@@H](Cc2ccc(C(F)(F)F)cc2)C(=O)N(C)CC(=O)N[C@@H](CCc2cc(F)c(C(F)(F)F)c(F)c2)C(=O)N2C[C@H](OCC)C[C@H]2C(=O)NC2(CCC2)C(=O)N(C)[C@@H](C2CCCC2)C(=O)N(C)[C@H](C(=O)N(C)CCC)CC(=O)N1C` [PP1704] gave a pIC50 of 7.99. On HRAS wild-type protein, the “HRAS /KRAS” value was “A (a compound having 10 or more and less than 20 is denoted as A)”. For the same molecule, in assay [2], the “NRAS /KRAS” value is “A (a compound having 10 or more and less than 20 is denoted as A)”.

In assay [1], `CCCN(C)C(=O)[C@@H]1CC(=O)N(C)[C@@H](CC2CCC2)C(=O)N[C@@H]([C@@H](C)CC)C(=O)N(C)CC(=O)N(C)[C@H]2C/C=C\CCN(C2=O)[C@@H](Cc2ccc(C(F)(F)F)cc2)C(=O)N(C)CC(=O)N[C@@H](CCc2cc(F)c(C(F)(F)F)c(F)c2)C(=O)N2C[C@H](OCC)C[C@H]2C(=O)NC2(CCC2)C(=O)N(C)[C@@H](C2CCCC2)C(=O)N1C` [PP1705] had a pIC50 of 8.10. Also, on HRAS wild-type protein, the “HRAS /KRAS” value was “A (a compound having 10 or more and less than 20 is denoted as A)”. Further, in assay [2], the “NRAS /KRAS” value is on record as “AA (a compound having 20 or more is denoted as AA)”.

For orientation: pIC50 means the IC50 on a negative log10 scale, so that one unit is a factor of ten. A high value points to a small IC50.
